In assay [1] the test system is passive cutaneous anaphylaxis (PCA) of rats. The assay can be described thus: Inhibition of passive cutaneous anaphylaxis (PCA) of rats. It counts as in vivo. Particulars: 15 mg/kg by gavage, 3 days. The method, then: Hair on the back of 40 SD rats, 180 g±10 was shaved off. 0.2 ml of a diluted rat-antiserum (1:10) was hypodermically injected into each rat through two places on the back, 0.1 ml for each place. After being injected, the rats were di vided randomly into four groups, which were administered by gavage with 75 mg/kg of total coumarins, 150 mg/kg of total coumarins, 15 mg/kg of anthralin and 15 ml/kg of distilled water for 3 days, once per day. After the injection with the rat-antiserum 48 hours, 1 ml of 0.5% evans blue, […], was intravenously injected into the rats through the caudal vein. The rats were killed in 20 minutes. A piece of skin with blue speckles was taken out from the back, and immersed in 5 ml solution of acetone/physiological saline (acetone:physiological saline=7-3 v/v) for 24 hs. After centrifugation; the supernatant was taken for measuring the optical density (OD) at 590 nm. Inhibition rate was obtained in accordance with the following equation. […] Inhibition (%)=[OD(control)−OD(drug)]×100%/OD(control)

Another assay has as its system vaginal epithelial cells. The experiment in a line: Effect on mitosis of vaginal epithelial cells in mice. Particulars: 15 mg/kg by gavage, once a day for 3 days; mitoses per 100 fundus cells. It counts as in vivo. The method, then: 60 female NIH mice of 27 g±2 g were selected. After being intraperitoneally injected with diethylstilbesrolum for 3 days continuously, 0.2 mg/day for each animal, all the mice were left in estrum interval. From the 4th day, the mice were randomly divided into four groups, 15 mice each. The mice of the four groups were administrated for three days by gavage with 150 mg/kg of total coumarins, 75 mg/kg of total coumarins, 15 mg/kg of anthralin and 15 ml/kg of physiological saline, respectively, once one day. The last administration was carried out at 8:00 am in order to avoid the interference of various administration rhythms between day and night in the mice to the test result. At 9:00 am, 2 mg/kg of colchicine was injected to the mice to make the mitosis of vaginal epithelial cells stopped at the middle cycle of M phase.
The mice were killed at 2 pm. A sample from the vagina of the animal was taken out and fixed in a 10% formaldehyde solution. A slice of tissue was observed under an optical microscope. The number of mitosis per 300 fundus cells was counted to obtain an average number of mitosis among 100 fundus cells, which was regarded as the index of mitosis of vaginal epithelial cells.

We go through one compound from US10383843B2, “Use of total coumarins of cnidium fruit in preparing medicaments for treating psoriasis” (priority 2013, dated 2019).

Broadly, the inhibition is the drop in the measured response relative to a control, in per cent. Low readings indicate a weak effect, high ones a strong effect.

In turn, `O=C1c2c(O)cccc2Cc2cccc(O)c21` [Anthralin, anthralin] gave an OD in assay [1] (OD at 590 nm of evans blue skin extract) of 0.043 ± 0.25. For the same compound, in assay [1] (Rattus norvegicus, po, 72 h), testing at 15 mg/kg gave an inhibition of 51.7%. Moreover, the “Index of Mitosis %” value in the assay with vaginal epithelial cells is 13.4 ± 2.1 %.
